One series has as its target MLL4 complex (Homo sapiens, UniProt Q9UMN6). As to the kind of experiment: HotSpot Methyltransferase Profiling assay, MLL4 complex. Type of series: biochemical.
The target of a further series is SETD2 (Homo sapiens, UniProt Q9BYW2). The series is described as follows: HotSpot Methyltransferase Profiling assay, SETD2. Type of series: biochemical.
Series [1] in a line: Caco-2 cell permeability assay. Type of series: in vitro ADME. The conditions noted are these: human; for Papp at 90 min, 10 μM: Caco-2, Papp.
A further series has as its target PRDM9 (Homo sapiens, UniProt Q9NQV7). As to the kind of experiment: HotSpot Methyltransferase Profiling assay, PRDM9. Format: biochemical.
The test system of the next series is Caco‐2 cells. As to the kind of experiment: Caco-2 cell permeability assay. Format: in vitro ADME. The following applies: Caco‐2, 10 μM. A general note: Caco-2 cells form a polarised layer with tight junctions and transporters.

We go through four molecules from PMC8518639 (Chemmedchem, 2021).

Molecules are shown by their SMILES.

MLL4 complex, sequence (Q9UMN6 2490-2715): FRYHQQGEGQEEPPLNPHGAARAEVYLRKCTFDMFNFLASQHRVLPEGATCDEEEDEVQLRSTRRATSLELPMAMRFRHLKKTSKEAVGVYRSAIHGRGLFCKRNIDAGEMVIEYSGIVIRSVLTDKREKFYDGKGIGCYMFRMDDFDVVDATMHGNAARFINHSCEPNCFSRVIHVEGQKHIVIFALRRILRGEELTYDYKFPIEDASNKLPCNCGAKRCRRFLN
MLL4 complex, sequence (Q9C005 whole entry, further chain): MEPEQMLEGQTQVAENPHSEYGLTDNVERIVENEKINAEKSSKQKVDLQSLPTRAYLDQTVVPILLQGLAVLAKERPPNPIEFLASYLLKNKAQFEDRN
MLL4 complex, sequence (Q15291 whole entry, further chain): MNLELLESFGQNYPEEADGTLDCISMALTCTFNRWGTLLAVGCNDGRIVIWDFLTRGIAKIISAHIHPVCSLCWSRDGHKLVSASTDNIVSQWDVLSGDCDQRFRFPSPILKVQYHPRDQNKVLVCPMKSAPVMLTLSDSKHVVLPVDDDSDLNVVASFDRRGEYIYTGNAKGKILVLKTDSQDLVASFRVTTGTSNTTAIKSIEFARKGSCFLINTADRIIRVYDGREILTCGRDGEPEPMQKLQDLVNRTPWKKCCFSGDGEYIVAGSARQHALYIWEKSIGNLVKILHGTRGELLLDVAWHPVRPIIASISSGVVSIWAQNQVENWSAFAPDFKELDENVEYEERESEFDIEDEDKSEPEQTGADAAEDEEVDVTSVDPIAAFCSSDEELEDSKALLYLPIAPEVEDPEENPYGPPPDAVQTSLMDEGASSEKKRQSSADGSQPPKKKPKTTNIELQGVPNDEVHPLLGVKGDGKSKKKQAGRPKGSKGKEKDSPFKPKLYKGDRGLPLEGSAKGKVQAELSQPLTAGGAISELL
MLL4 complex, sequence (Q9UBL3 96-628, further chain): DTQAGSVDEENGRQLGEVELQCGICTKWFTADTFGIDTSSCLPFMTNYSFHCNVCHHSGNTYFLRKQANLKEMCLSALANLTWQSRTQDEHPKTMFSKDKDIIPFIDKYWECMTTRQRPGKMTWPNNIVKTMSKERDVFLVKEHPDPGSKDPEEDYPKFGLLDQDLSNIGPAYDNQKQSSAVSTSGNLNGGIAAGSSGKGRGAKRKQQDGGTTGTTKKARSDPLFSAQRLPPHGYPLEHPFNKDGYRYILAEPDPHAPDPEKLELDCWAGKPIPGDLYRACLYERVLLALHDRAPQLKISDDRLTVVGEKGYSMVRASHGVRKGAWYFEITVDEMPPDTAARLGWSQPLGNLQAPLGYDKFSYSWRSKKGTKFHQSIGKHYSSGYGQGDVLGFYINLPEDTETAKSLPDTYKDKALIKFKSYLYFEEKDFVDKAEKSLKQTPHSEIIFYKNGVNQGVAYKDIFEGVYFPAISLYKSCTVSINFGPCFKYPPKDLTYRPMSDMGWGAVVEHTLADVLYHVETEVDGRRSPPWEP
PRDM9, sequence (Q9NQV7 whole entry): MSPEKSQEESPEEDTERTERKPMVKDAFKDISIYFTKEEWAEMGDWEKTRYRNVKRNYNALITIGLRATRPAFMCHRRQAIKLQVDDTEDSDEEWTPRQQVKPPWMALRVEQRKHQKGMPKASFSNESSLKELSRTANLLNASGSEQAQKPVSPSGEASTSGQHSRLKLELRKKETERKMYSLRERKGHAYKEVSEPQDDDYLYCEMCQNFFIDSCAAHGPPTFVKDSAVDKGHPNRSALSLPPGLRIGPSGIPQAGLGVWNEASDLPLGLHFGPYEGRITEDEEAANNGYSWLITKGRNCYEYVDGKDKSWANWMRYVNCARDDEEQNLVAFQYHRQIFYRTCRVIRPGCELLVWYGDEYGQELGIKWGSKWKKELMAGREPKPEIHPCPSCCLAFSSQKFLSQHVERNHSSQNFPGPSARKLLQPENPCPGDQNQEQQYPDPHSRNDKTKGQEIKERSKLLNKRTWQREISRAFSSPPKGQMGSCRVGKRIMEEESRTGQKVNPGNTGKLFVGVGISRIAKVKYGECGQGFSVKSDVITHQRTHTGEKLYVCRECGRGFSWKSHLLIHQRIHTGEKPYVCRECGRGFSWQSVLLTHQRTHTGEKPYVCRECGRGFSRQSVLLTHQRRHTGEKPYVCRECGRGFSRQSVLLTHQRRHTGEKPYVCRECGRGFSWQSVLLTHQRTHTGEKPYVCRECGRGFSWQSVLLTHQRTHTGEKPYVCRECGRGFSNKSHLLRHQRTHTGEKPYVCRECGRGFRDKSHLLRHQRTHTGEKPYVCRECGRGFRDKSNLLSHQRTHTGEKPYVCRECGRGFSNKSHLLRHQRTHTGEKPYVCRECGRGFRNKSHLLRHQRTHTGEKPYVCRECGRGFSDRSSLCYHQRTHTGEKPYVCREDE
SETD2, sequence (Q9BYW2 whole entry): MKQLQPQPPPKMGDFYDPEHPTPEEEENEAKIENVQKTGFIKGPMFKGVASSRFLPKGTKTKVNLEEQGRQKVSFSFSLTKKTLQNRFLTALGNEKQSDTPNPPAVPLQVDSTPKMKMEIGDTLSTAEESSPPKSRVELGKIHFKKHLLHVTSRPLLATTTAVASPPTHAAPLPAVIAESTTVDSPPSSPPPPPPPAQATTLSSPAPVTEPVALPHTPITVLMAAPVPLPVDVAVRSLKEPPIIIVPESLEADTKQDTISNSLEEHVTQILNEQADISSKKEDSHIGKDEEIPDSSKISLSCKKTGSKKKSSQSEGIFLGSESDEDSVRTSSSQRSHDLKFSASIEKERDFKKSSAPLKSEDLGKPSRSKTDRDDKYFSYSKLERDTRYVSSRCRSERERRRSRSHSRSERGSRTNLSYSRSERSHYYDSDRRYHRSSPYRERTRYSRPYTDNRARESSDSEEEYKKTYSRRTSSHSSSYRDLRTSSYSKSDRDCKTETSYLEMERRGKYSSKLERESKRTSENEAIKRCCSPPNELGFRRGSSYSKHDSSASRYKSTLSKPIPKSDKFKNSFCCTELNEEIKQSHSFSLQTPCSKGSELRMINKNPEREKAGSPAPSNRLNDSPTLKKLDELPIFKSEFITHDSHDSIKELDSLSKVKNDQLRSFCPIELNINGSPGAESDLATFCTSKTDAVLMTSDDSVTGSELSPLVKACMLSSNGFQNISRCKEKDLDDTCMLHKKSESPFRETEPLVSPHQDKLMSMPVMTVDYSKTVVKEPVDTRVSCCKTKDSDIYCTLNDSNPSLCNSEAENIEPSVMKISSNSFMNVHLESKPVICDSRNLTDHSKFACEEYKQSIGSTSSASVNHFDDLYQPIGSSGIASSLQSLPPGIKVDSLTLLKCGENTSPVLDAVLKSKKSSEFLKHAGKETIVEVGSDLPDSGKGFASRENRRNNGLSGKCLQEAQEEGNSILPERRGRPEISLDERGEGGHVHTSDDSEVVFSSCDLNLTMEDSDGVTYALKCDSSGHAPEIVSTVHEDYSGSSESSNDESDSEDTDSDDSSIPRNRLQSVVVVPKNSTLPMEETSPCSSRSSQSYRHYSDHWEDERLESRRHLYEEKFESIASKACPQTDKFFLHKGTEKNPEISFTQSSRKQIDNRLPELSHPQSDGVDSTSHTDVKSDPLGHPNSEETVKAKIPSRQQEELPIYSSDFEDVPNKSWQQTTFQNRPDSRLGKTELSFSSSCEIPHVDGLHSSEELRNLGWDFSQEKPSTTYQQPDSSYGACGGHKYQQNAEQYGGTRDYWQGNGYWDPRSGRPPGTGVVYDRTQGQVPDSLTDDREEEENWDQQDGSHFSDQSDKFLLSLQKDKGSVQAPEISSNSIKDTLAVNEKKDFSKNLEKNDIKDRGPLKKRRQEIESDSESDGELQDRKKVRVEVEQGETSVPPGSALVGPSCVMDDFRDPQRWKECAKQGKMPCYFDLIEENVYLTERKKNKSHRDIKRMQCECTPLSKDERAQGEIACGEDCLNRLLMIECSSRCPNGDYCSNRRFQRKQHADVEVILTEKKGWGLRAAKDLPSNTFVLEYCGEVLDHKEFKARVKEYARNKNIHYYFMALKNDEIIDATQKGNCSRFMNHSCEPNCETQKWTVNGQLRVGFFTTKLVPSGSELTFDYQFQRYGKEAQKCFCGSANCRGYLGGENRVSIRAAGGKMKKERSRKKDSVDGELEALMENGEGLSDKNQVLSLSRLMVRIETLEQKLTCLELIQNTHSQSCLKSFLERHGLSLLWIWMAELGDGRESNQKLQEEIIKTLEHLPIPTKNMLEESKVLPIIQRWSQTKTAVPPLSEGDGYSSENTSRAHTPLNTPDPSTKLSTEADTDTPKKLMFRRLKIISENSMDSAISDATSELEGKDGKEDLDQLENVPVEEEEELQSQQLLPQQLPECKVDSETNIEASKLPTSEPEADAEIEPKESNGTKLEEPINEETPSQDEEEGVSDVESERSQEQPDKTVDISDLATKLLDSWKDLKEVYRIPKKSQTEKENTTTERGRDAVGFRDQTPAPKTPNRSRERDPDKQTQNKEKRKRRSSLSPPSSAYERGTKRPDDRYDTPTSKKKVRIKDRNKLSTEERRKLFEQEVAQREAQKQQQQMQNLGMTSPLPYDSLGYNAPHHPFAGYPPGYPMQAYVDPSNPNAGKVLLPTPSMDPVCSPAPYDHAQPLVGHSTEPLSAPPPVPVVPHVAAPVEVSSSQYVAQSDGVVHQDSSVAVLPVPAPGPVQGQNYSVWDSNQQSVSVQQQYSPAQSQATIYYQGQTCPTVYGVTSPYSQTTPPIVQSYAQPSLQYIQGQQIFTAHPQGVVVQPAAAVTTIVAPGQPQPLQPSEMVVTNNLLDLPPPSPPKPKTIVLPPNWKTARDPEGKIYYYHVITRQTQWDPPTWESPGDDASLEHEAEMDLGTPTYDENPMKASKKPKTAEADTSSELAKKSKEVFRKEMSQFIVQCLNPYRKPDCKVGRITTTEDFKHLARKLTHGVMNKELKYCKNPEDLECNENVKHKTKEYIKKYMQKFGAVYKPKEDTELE

The term IC50 denotes the midpoint of a concentration-inhibition curve. Turning to `Nc1ncnc2c1ncn2[C@@H]1O[C@H](CSCC[C@H](N)C(=O)O)[C@@H](O)[C@H]1O` [SAH, S‐(5′‐adenosyl)‐ʟ‐homocysteine], the half-inhibitory concentration (IC50) against MLL4 complex came to 2.11 µM; against SETD2, 7.39 µM.

One may read the efflux ratio as a quotient of directional permeabilities that is used to spot active efflux. By Papp is commonly meant the rate of passage across a membrane or cell layer, normalised by area and donor concentration. Take `CC[C@H]1OC(=O)[C@H](C)[C@@H](O[C@H]2C[C@@](C)(OC)[C@@H](O)[C@H](C)O2)[C@H](C)[C@@H](O[C@@H]2O[C@H](C)C[C@H](N(C)C)[C@H]2O)[C@](C)(O)C[C@@H](C)C(=O)[C@H](C)[C@@H](O)[C@]1(C)O` [Erythromycin]: in series [1] (Caco-2), the efflux ratio at 90 min, 10 μM was 62.9. For the same molecule, the Papp at 90 min, 10 μM stood at 0.3 ×10⁻⁶ cm/s in series [1] (Replicate 1, Direction A‐B); 18.1 ×10⁻⁶ cm/s in series [1] (Replicate 1, Direction B‐A); 0.2 ×10⁻⁶ cm/s in series [1] (Replicate 2, Direction A‐B); 17.5 ×10⁻⁶ cm/s in series [1] (Replicate 2, Direction B‐A).

Take `CN1C(=O)[C@@]23C[C@]4([C@]56C[C@@]78SS[C@@](CO)(C(=O)N7[C@H]5Nc5ccccc56)N(C)C8=O)c5ccccc5N[C@@H]4N2C(=O)[C@]1(CO)SS3` [chaetocin]: at PRDM9, half-maximal inhibition (IC50) required 3.98 µM.

Turning to `COCCc1ccc(OCC(O)CNC(C)C)cc1` (stereo not shown) [Metoprolol], the Papp at 90 min, 10 μM is 33.7 ×10⁻⁶ cm/s in series [1] (Replicate 1, Direction A‐B); 34.7 ×10⁻⁶ cm/s in series [1] (Replicate 1, Direction B‐A); 31.4 ×10⁻⁶ cm/s in series [1] (Replicate 2, Direction A‐B); 33.3 ×10⁻⁶ cm/s in series [1] (Replicate 2, Direction B‐A). Also, the “Papp(B−A)/Papp(A−B) (efflux ratio)” value with Caco‐2 cells turned out to be 1.1.
